According to PubChem BioAssay (NCI):
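How tested: cells in 96-well plates exposed to compound for 48 hours at five concentrations. Abbreviation: GI50, concentration required for 50% inhibition of growth. TGI marks complete inhibition of growth.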

How the values were obtained:
Assay in all cases: NCI-60 cell line screen, 48 h
[1] = tested on: NCI-H522 lung
[2] = tested on: ACHN renal
[3] = tested on: MALME-3M melanoma
[4] = tested on: SK-OV-3 ovarian
[5] = tested on: SK-MEL-5 melanoma
[6] = tested on: MDA-MB-435
[7] = tested on: MOLT-4 leukemia
[8] = tested on: A549 NSCLC
[9] = tested on: NCI/ADR-RES ovarian
[10] = tested on: K-562 leukemia
[11] = tested on: TK-10 renal
[12] = tested on: SNB-19 CNS
[13] = tested on: SK-MEL-2 melanoma
[14] = tested on: NCI-H460 lung
[15] = tested on: SF-295 CNS
[16] = tested on: MCF7 breast
[17] = tested on: RXF 393 renal
[18] = tested on: OVCAR-8 ovarian
[19] = tested on: HS 578T breast

SMILES | TGI [1] [µM] | TGI [2] [µM] | TGI [3] [µM] | TGI [4] [µM] | TGI [5] [µM] | TGI [6] [µM] | TGI [7] [µM] | TGI [8] [µM] | TGI [9] [µM] | TGI [10] [µM] | TGI [11] [µM] | TGI [12] [µM] | TGI [13] [µM] | TGI [14] [µM] | TGI [15] [µM] | TGI [16] [µM] | TGI [17] [µM] | TGI [18] [µM] | GI50 [4] [µM] | TGI [19] [µM]
C[C@@H]1CC[C@@H]2[C@@H](C1)O[C@@H]([C@@H](C)OCc1ccccc1)SC2(C)C | 31.1 | 31.6 | 37.9 | 59.9 | 31.3 | 35.8 | 32.3 | 83.4 | 40.2 | 36 | 55.4 | 33.6 | 31 | 49.1 | 31.2 | 35.3 | 30.7 | 58.8 |  | 
COc1ccc(-c2nc(-c3cnccn3)n(C3OC(CO)C(O)C3O)n2)cc1 (configuration not stated) | > 10 | > 10 | > 10 | > 10 |  | > 10 | > 10 | > 10 | > 10 | > 10 | > 10 | > 10 | > 10 | > 10 | > 10 | > 10 |  | > 10 |  | 
CO/C(=N\N=C\c1ccc(Cl)c(Cl)c1)c1ccncc1 |  | > 10 | > 10 | > 10 | > 10 |  | > 10 | > 10 | > 10 | > 10 | > 10 | > 10 | > 10 | > 10 | > 10 | > 10 | > 10 | > 10 |  | 
CC1=CCC(C(C)(C)NC(=O)c2ccccc2)C/C1=N/O (configuration not stated) | > 100 |  |  | > 100 | > 100 | > 100 | > 100 | > 100 |  | > 100 | > 100 | > 100 |  | > 100 | > 100 | > 100 |  | > 100 |  | 
O=[N+]([O-])c1cccc(Nc2nc(Cl)nc(Cl)n2)c1 | > 100 | > 100 | > 100 | > 100 | > 100 |  | > 100 | > 100 |  | > 100 |  | > 100 | > 100 | > 100 | > 100 |  |  | > 100 |  | 
COc1ccc(/C=C\c2cc(OC)c(OC)c(OC)c2)cc1 | 0.00151 | > 100 | > 100 | > 100 | 14.5 |  | 3.09 | > 100 |  | > 100 |  |  | > 100 | 15.6 | 0.000719 |  |  | > 100 | 99.3 | 
COc1ccc2[nH]c3c(c2c1)[C@H]1CCC(C(C)(C)C)C[C@H]1[C@H]1C(=O)N(c2ccccc2)C(=O)[C@@H]31 (some centres not stated) | > 49.5 | 18.4 | 40.4 | 44.9 | > 100 |  | > 71.2 | > 75.8 |  | > 91.5 | > 74.1 | > 51.7 | 58 | > 53.6 | > 42.5 |  | 26.5 | 28.1 |  | 
CCCCCCCCC(O)c1ccc(/C=C\C(O)CCCC(=O)O)s1 (configuration not stated) | > 100 | > 100 | > 100 | > 100 | > 100 |  | > 100 | > 100 |  | > 100 | > 100 | > 100 | > 100 | > 100 | > 100 |  | > 100 | > 100 |  | 
O=C1Oc2ccccc2C(=O)/C1=C/N1C(=O)CNC1=S | > 100 | > 100 |  | > 100 | > 100 | > 100 | > 100 | > 100 | > 100 | > 100 | > 100 | > 100 | > 100 | > 100 | > 100 | > 100 | > 100 | > 100 |  | > 100
COC(=O)/C=C(\C)CCC1SC1(C)C (configuration not stated) | > 100 | > 100 | > 100 | > 100 | > 100 |  | > 100 | > 100 |  | > 100 | > 100 | > 100 | > 100 | > 100 | > 100 |  | > 100 | > 100 |  | 
O=C1OC([C@H](O)c2cccnc2)c2ccccc21 (some centres not stated) | > 10 | > 10 |  | > 10 | > 10 | > 10 | > 10 | > 10 | > 10 | > 10 | > 10 | > 10 | > 10 | > 10 | > 10 | > 10 | > 10 | > 10 |  | > 10
C1CSCC2(COC2)CSCCSCC2(COC2)CS1 | > 100 |  |  | > 100 | > 100 | > 100 | > 100 | > 100 | > 100 | > 100 | > 100 | > 100 |  | > 100 | > 100 | > 100 |  | > 100 |  | 
CCOC(=O)CCC(NC(=O)c1ccc(NC(OC)c2nc3cc(C(F)(F)F)ccc3nc2-c2ccccc2)cc1)C(=O)OCC (configuration not stated) | 25.6 | 30.2 | 31.3 | 34.9 | 30 |  | > 24.1 | 39.4 |  | > 26.6 | 38.4 | 27.5 | 33.1 | 26.2 | 31.2 |  | 27.2 | 29.6 |  | 
CCOC(=O)C1=C(OC(OCC)C(CC)[Se]c2ccccc2)CCC1 (configuration not stated) | 29.1 | > 100 | 56.7 | > 100 | 31.2 |  | 73.5 | > 100 |  | > 100 | > 100 | > 100 | > 100 | > 100 | 65.5 |  | 37.7 | > 100 |  | 
COc1ccc(-c2nc(Nc3ccccc3)sc2Cc2sc(Nc3ccccc3)nc2-c2ccc(OC)cc2)cc1 |  | > 100 | > 100 | > 100 | > 100 | > 100 | > 100 | > 100 | > 100 | > 100 | > 100 | > 100 |  | > 100 |  | > 100 | 26.8 | > 100 |  | 
COc1cc(C2c3cc4c(cc3C(=O)C3CCC(=O)N32)OCO4)cc(OC)c1O (configuration not stated) |  | > 50 |  | > 50 |  | > 50 | > 50 | > 50 | > 50 | > 50 |  | > 50 | > 50 | > 50 | > 50 | > 50 | > 50 | > 50 |  | 
C=C1C2=C(CCCC2)C(=O)OC12CCCCC2 | > 100 | > 100 | > 100 | > 100 | > 100 |  | > 100 | > 100 |  | > 100 | > 100 | > 100 | > 100 | > 100 | > 100 |  | > 100 | > 100 |  | 
C[C@@H]1CC[C@H]2[C@H](C)C(OC3O[C@@H]4O[C@@]5(C)CC[C@H]6[C@H](C)CC[C@@H]([C@@H]3C)[C@@]46O5)O[C@@H]3O[C@@]4(C)CC[C@@H]1[C@]32O4 (some centres not stated) | > 100 | > 100 | > 100 | > 100 | > 100 | > 100 | > 100 | > 100 |  | > 100 | > 100 | > 100 | > 100 | > 100 | > 100 | > 100 |  | > 100 |  | > 100
CN1CCc2ccccc2C(C(=O)c2ccc3c(c2)OCO3)C1=O (configuration not stated) | > 100 | > 100 | > 100 | > 100 | > 100 |  | > 100 | > 100 |  | > 100 | > 100 | > 100 | > 100 | > 100 |  |  | > 100 | > 100 |  | 
COc1cc([C@@H]2c3cc4c(cc3[C@@H](Nc3ccc(Cl)cc3C(=O)c3ccccc3)[C@H]3COC(=O)[C@H]23)OCO4)cc(OC)c1OC | 0.918 | > 100 | > 100 | > 100 | 16 |  | > 100 | > 100 | > 100 | > 100 | > 100 | > 85.1 | > 100 | > 100 |  | > 100 |  | > 100 |  | 0.926
O=c1[nH][nH]c(=O)c2c1ccc1oc3ccccc3c12 | > 100 | > 100 | > 100 | > 100 | > 100 | > 100 | > 100 | > 100 |  | > 100 | > 100 | > 100 | > 100 | > 100 | > 100 | > 100 | > 100 | > 100 |  | > 100
COC(=O)[C@@](NC(=O)OCc1ccccc1)([C@H](C)O)C(F)(F)F | > 100 | > 100 | > 100 | > 100 | > 100 | > 100 | > 100 | > 100 | > 100 | > 100 | > 100 | > 100 | > 100 | > 100 | > 100 |  | > 100 | > 100 |  | > 100
Cc1ccc(S(=O)(=O)N2CCSCCSCCSCCN(S(=O)(=O)c3ccc(C)cc3)CC2)cc1 |  | > 100 |  | > 100 | > 100 | > 100 | > 100 | > 100 | > 100 | > 100 | > 100 | > 100 | > 100 | > 100 | > 100 | > 100 | > 100 | > 100 |  | > 100
O=C(/C=C/c1ccccc1O)c1ccccc1Cl | 80.4 | > 100 | > 100 | > 100 | > 100 |  | 84.1 | > 100 |  | > 100 | > 100 | > 100 | > 100 | > 100 | > 100 |  | > 100 | > 100 |  | 
Cc1ccc(-c2cc(-c3ccccc3)c(C#N)c(=O)[nH]2)cc1 | > 100 | > 100 | > 100 | > 100 | > 100 |  | > 100 | > 100 |  | > 100 | > 100 | > 100 |  | > 100 | > 100 |  | > 100 | > 100 |  | 
Cc1cc(O)c(/C=N/C(=S)Nc2ccc(S(N)(=O)=O)cc2)c(=O)o1 |  | > 100 |  | > 100 | > 100 | > 100 | > 100 | > 100 | > 100 |  | > 100 | > 100 | > 100 | > 100 | > 100 | > 100 | > 100 | > 100 |  | 
O=c1c(Sc2c(SCSc3cnc4ccccc4c3Sc3c[nH]c4ccccc4c3=O)cnc3ccccc23)c[nH]c2ccccc12 | > 100 | > 100 |  |  | > 100 | > 100 | > 100 |  | > 100 |  | > 100 | > 100 |  | > 100 | > 100 |  |  | > 100 |  | > 100
COc1ccc(C2Cc3cc(OC)c(OC)c(OC)c3C2)cc1 (configuration not stated) |  | > 100 | > 100 | > 100 | 31.3 |  | 61.6 | 76.2 |  | > 100 | > 100 | > 100 | > 100 | > 100 | > 100 |  |  | > 100 |  | 
CCCCOC/N=C(/N)NC#N | > 100 | > 100 | > 100 | > 100 | > 100 |  | > 100 | > 100 |  | > 100 | > 100 | > 100 | > 100 | > 100 | > 100 |  | > 100 | > 100 |  | 
